Columns and labels:
Type in all cases: physicochemical
[1] = Birefringence test for anisotropic aggregates on wax-coated slide; parameters: key: Y is yes; N is no; details: surfactant in IPA glyphosate formulation
Description: To determine whether a herbicidal formulation comprising glyphosate or a salt or ester thereof and a surfactant forms anisotropic aggregates on the foliage of a plant comprising the surfactant, the following birefringence testing procedure may be utilized.
First, a wax-coated slide is prepared. A preferred wax for preparing the slide is a blend of carnauba wax and beeswax in a weight/weight ratio of approximately 10:1, respectively. A clear wax mixture is prepared consisting of about 5% carnauba wax and about 0.5% beeswax in isopropanol, and is maintained at a temperature of approximately 82° C. The end of a glass 2.4 cm×7.2 cm microscope slide is immersed perpendicularly in the wax mixture to a depth of approximately one-third of the length of the slide. After about 10 to 15 seconds, the slide is very slowly and steadily withdrawn from the wax mixture and allowed to cool, leaving a wax layer deposited on both faces of the slide.
Visual examination of the slide can give a preliminary indication of the thickness and uniformity of the wax coating. If imperfections are evident the slide is rejected. […] Further evaluation of the acceptability of the wax-coated slide for the test is done by examining the slide under a microscope. The slide is selected for use in the test if, on microscopic examination using a 4.9× objective, the wax coating is uniformly thick and there is uniform density of wax particles across the slide.
The next stage in the procedure is to conduct the test.
The following instrumentation, or equivalent, items are required or useful for the test procedure: • Nikon SMZ-10A stereoscopic microscope equipped for polarized light observation, photomicrography, and video observation and recording. • 3CCD MTI camera. • Diagnostic Instruments 150 IL-PS power supply. • Sony Trinitron color video monitor, model PVM-1353MD. • Mitsubishi time-lapse video cassette recorder, model HS-S5600. • Hewlett Packard Pavillion 7270 computer, with Windows 95 and Image-Pro • Plus version 2.0 electronic imaging program installed. • Hewlett Packard Deskjet 870Cse printer.
For testing, a wax-coated slide, prepared and selected as described above, is positioned on the microscope stage, with the system set to provide transmitted light, both straight and polarized. A 1 microliter drop of the sample to be tested is applied to the wax surface using a thoroughly cleaned 1 microliter Hamilton syringe. This and subsequent operations are followed through the microscope at 4.9× objective. Duplicate or triplicate tests are done for each composition. Numerous tests can be conducted simultaneously on a single slide. Progression of change in the microscopic appearance of the sample is observed through the microscope and recorded at designated time intervals. Useful intervals are 1 minute, 10 minutes, 2 hours and greater than 24 hours after application of the drop to the wax surface. Observations can also be made at intermediate times to capture possible significant transitions occurring at such times.
The temperature of the wax layer tends to increase with prolonged exposure to the microscope light. […] However, in some cases temperature does affect the outcome of the test and in such cases it is preferred to illuminate the sample only for the short periods necessary to make observations, so that the temperature of the wax layer remains close to ambient temperature.
At dark field (polarized light) the wax layer is observed for birefringence, and at light field the character of the drop surface is observed, at each time interval. The following records are preferably made: • birefringence (y/n); • time of initial appearance of birefringence; • character of the birefringence; • appearance of drop surface as composition “dries”; • degree of spread of the drop; • effects of temperature (warming of the slide) if any; • other noticeable changes.

[2] = Specific gravity (Mettler DA-300 Density/Specific Gravity Meter); details: 20/15.6° C.; 30% a.e. by weight glyphosate monobasic salt solutions
Description: Specific gravities are measured using a Mettler DA-300 Density/Specific Gravity Meter.

[3] = Compatibility of surfactant with potassium glyphosate concentrate (no phase separation, 50° C., 1 week); details: 50° C. oven 1 week; for Compatible w/37% a.e. K + glyphosate at 12 wt % loading: 37 wt. % a.e. potassium glyphosate/12 wt. % surfactant; for Compatible w/45% a.e. K + glyphosate at 15% wt loading: 45 wt. % a.e. potassium glyphosate/15 wt. % surfactant
Description: For the 31 wt. % a.e. potassium glyphosate/10 wt. % surfactant compositions: 1.550 g of 40 wt. % a.e. aqueous glyphosate potassium salt solution was weighed into a vial. To the same vial, 0.200 g of surfactant was added. Enough deionized water was then added to the contents to bring the total weight to 2.000g. The mixture was stirred for 2 hours at room temperature and checked to see if a solution had been formed. If a solution was present, the test vial was allowed to stand at room temperature overnight. If a solution was still present, the test vial was placed in a 50° C. oven for 1 week. If no phase separation had occurred in one week, the surfactant being tested was considered “compatible.” All of the surfactants identified in Table 4 were compatible at the 31% a.e. potassium/10 wt. % surfactant loading.
For the 37 wt. % a.e. potassium glyphosate/12 wt. % surfactant compositions: 41.1 g of 45 wt. % a.e. aqueous glyphosate potassium salt was weighed to a container. To the same container was added 6.0 g of surfactant and 2.9 g deionized water for a total weight of 50.0 g. The remainder of the protocol is the same as that described for the 31 wt. % samples. The surfactants identified in Table 4 that were compatible at the 37% a.e. potassium/12 wt. % surfactant loading are indicated in Table 5 below.
For the 40 wt. % a.e. potassium glyphosate/10 wt. % surfactant compositions: 1.79 g of 45 wt. % a.e. aqueous glyphosate potassium salt was weighed into a vial. To the same vial was added 0.2 g of surfactant. The remainder of the protocol is the same as that described for the 31 wt. % samples. The surfactants identified in Table 4 that were compatible at the 40% a.e. potassium/10 wt. % surfactant loading are indicated in Table 5 below.
For the 45 wt. % a.e. potassium glyphosate/15 wt. % surfactant compositions: 1.100 g of solid mono potassium glyphosate was weighed into a vial. To the same vial was added 0.300 g surfactant. Enough deionized water was added to the vial to bring the final weight to 2.000 g. The remainder of the protocol is the same as that described for the 31 wt. % samples. The surfactants identified in Table 4 that were compatible at the 45% a.e. potassium/[…] are indicated in Table 5 below.

[4] = Compatibility of surfactant with diammonium glyphosate concentrate (no phase separation, 50° C., 1 week); details: 50° C. oven 1 week; for Compatible w/31% a.e. diammonium glyphosate at 10 wt % loading: 31 wt. % a.e. diammonium glyphosate/10 wt. % surfactant; for Compatible w/37% a.e. diammonium glyphosate at 12 wt % loading: 37 wt. % a.e. diammonium glyphosate/12 wt. % surfactant
Description: For the 31 wt. % a.e. NH4^+glyphosate/10 wt. % surfactant compositions: • 1.48 g of 41.9 wt % a.e. aqueous glyphosate diammonium (1.7 eq) salt was weighed into a vial. To the same vial was added 0.2 g of surfactant and 0.32 g deionized water. The remainder of the protocol is the same as that described for the 31 wt % potassium glyphosate samples. The surfactants identified in Table 4 that were compatible at the 31% a.e. ammonium/10 wt. % surfactant loading are indicated in Table 5 below.
For the 37 wt. % a.e. NH4^+glyphosate/12 wt. % surfactant compositions: • 1.76 g of 41.9 wt % a.e. aqueous glyphosate diammonium (1.7 eq) salt was weighed into a vial. To the same vial was added […]. The remainder of the protocol is the same as that described for the 31 wt % potassium glyphosate samples. The surfactants identified in Table 4 that were compatible at the 37% a.e. ammonium/12 wt. % surfactant loading are indicated in Table 5 below.

## CCCCCCCCCCCCCCCCN(C)CCN(C)CCCCCCCCCCCCCCCC
[1]
  AA (anisotropic aggregate): Y

## CCN.O=C(O)CNCP(=O)(O)O
[2]
  Specific Gravity: 1.1599

## CCCN.O=C(O)CNCP(=O)(O)O
[2]
  Specific Gravity: 1.1429

## CCCCC(CC)COP(=O)(O)O (stereo not drawn) [2-ethylhexyl phosphate]
[1]
  AA (anisotropic aggregate): N

## CCCCCCCCNC(CO)(CO)CO [EEE]
[3]
  Compatible w/37% a.e. K + glyphosate at 12 wt % loading: Yes
  Compatible w/45% a.e. K + glyphosate at 15% wt loading: No
[4]
  Compatible w/31% a.e. diammonium glyphosate at 10 wt % loading: Yes
  Compatible w/37% a.e. diammonium glyphosate at 12 wt % loading: Yes

## CCCCCCCCCCCCNC(CO)(CO)CO [FFF]
[4]
  Compatible w/31% a.e. diammonium glyphosate at 10 wt % loading: No
  Compatible w/37% a.e. diammonium glyphosate at 12 wt % loading: No

## CCCCCCCCCCN(C)CCN(C)CCCCCCCCCC [Gemini 10-2-10]
[1]
  AA (anisotropic aggregate): Y

## CCCCCCCCCCN(C)CCCN(C)CCCCCCCCCC [Gemini 10-3-10]
[1]
  AA (anisotropic aggregate): Y

## CCCCCCCCCCN(C)CCCCN(C)CCCCCCCCCC [Gemini 10-4-10]
[1]
  AA (anisotropic aggregate): Y

## CCCCCCCCCCCCOCCOCCOCCOCCN(C)C [HHH]
[4]
  Compatible w/31% a.e. diammonium glyphosate at 10 wt % loading: No

## CCCCCCCCCCCCCCCCOCCOCCOCCOCCOCCOCCOCCOCCOCCOCCNCCCN [KKK]
[3]
  Compatible w/37% a.e. K + glyphosate at 12 wt % loading: Probably
  Compatible w/45% a.e. K + glyphosate at 15% wt loading: Yes, but minor

## CCCCCCCCCCCCCCCCOCCOCCOCCOCCOCCOCCOCCOCCOCCOCCN(C)CCN(C)C [MMM]
[3]
  Compatible w/37% a.e. K + glyphosate at 12 wt % loading: Yes
[4]
  Compatible w/31% a.e. diammonium glyphosate at 10 wt % loading: Yes

## CCCCCCCCCCCCCCCCOCCOCCOCCOCCOCCOCCOCCOCCOCCOCCN(C)CC(O)C(O)C(O)C(O)CO (stereo not drawn) [OOO]
[3]
  Compatible w/37% a.e. K + glyphosate at 12 wt % loading: Probably
[4]
  Compatible w/31% a.e. diammonium glyphosate at 10 wt % loading: No
  Compatible w/37% a.e. diammonium glyphosate at 12 wt % loading: Yes

## CCCCCCCCCCCCCCCCOCCOCCOCCOCCOCCOCCOCCOCCOCCOCCOCCOCCOCCOCCOCCOCCOCCOCCOCCOCCN(C)CC(O)C(O)C(O)C(O)CO (stereo not drawn) [PPP]
[3]
  Compatible w/37% a.e. K + glyphosate at 12 wt % loading: No
[4]
  Compatible w/31% a.e. diammonium glyphosate at 10 wt % loading: No
  Compatible w/37% a.e. diammonium glyphosate at 12 wt % loading: No

## CCCCCCCCCCCCCCCCOCCOCCOCCOCCOCCOCCOCCOCCOCCOCCOCCOCCOCCOCCOCCOCCOCCOCCOCCOCCN(C)CC(O)CO (stereo not drawn) [QQQ]
[3]
  Compatible w/37% a.e. K + glyphosate at 12 wt % loading: No
[4]
  Compatible w/31% a.e. diammonium glyphosate at 10 wt % loading: No
  Compatible w/37% a.e. diammonium glyphosate at 12 wt % loading: No

## CCCCCCCCCCCCN(C)CC(O)C(O)C(O)C(O)CO (stereo not drawn) [RR]
[3]
  Compatible w/37% a.e. K + glyphosate at 12 wt % loading: Yes
  Compatible w/45% a.e. K + glyphosate at 15% wt loading: Yes
[4]
  Compatible w/31% a.e. diammonium glyphosate at 10 wt % loading: Yes
  Compatible w/37% a.e. diammonium glyphosate at 12 wt % loading: Yes

## CCCCCCCCCCCCCCCCCCN(C)CCOCCOCCOCCOCCOCCOCCOC [Surfactant C, α-methyl-ω-(N-methyloctadecylamino)poly(oxy-1,2-ethanediyl)]
[4]
  Compatible w/31% a.e. diammonium glyphosate at 10 wt % loading: No

## CCCCCCCCN(CCCN(CCCCCCCC)CC(O)C(O)C(O)C(O)CO)CC(O)C(O)C(O)C(O)CO (stereo not drawn) [Surfactant CCC, 1,8 hexylaminoglucitol octane]
[3]
  Compatible w/37% a.e. K + glyphosate at 12 wt % loading: Yes
  Compatible w/45% a.e. K + glyphosate at 15% wt loading: Yes

## CN(CCCCCCCCCCCCN(C)CC(O)C(O)C(O)C(O)CO)CC(O)C(O)C(O)C(O)CO (stereo not drawn) [Surfactant ZZ, 1,12 methylaminoglucitoldodecane]
[3]
  Compatible w/37% a.e. K + glyphosate at 12 wt % loading: Yes
  Compatible w/45% a.e. K + glyphosate at 15% wt loading: Yes

## CCCCCCCCCCCC[N+](C)(C)C [VVV]
[4]
  Compatible w/31% a.e. diammonium glyphosate at 10 wt % loading: Yes
  Compatible w/37% a.e. diammonium glyphosate at 12 wt % loading: No

## CCCCCCCCCCCC[N+](C)(C)CC(O)C(O)C(O)C(O)CO (stereo not drawn) [XX]
[3]
  Compatible w/37% a.e. K + glyphosate at 12 wt % loading: No
[4]
  Compatible w/31% a.e. diammonium glyphosate at 10 wt % loading: Yes
  Compatible w/37% a.e. diammonium glyphosate at 12 wt % loading: No

## CCCCCCCCCCCCCCCCCC[N+](C)(C)CC(O)C(O)C(O)C(O)CO (stereo not drawn) [YY]
[3]
  Compatible w/37% a.e. K + glyphosate at 12 wt % loading: No
[4]
  Compatible w/31% a.e. diammonium glyphosate at 10 wt % loading: Yes
  Compatible w/37% a.e. diammonium glyphosate at 12 wt % loading: No

## CCCCCCCC(=O)O [caprylic acid]
[1]
  AA (anisotropic aggregate): N

## CCCCCCCCCCN(C)C [drawing 146 w=10]
[1]
  AA (anisotropic aggregate): N

## CCCCCCCC/C=C\CCCCCCCC(=O)O [oleic acid]
[1]
  AA (anisotropic aggregate): Y

## CCCCCCCCCCCCCCCC(=O)O [palmitic acid]
[1]
  AA (anisotropic aggregate): Y

## CCCCCCCCCCCCOS(=O)(=O)[O-].[Na+] [sodium lauryl sulfate]
[1]
  AA (anisotropic aggregate): Y

## CCCCCCCCCCCCCCCCCC(=O)O [stearic acid]
[1]
  AA (anisotropic aggregate): Y

## laureth-3 phosphate
[1]
  AA (anisotropic aggregate): N

Source: patent US20050261130A1, “Novel surfactants and formulations” (Monsanto Technology LLC, priority 2000, published 2005)
